Experimental data as given in PubChem BioAssay (NCI).
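96-well plates; 48 h exposure; 5 concentrations. Endpoints by linear interpolation between flanking doses. Not reached: highest tested concentration assigned. GI50 = concentration required for 50% inhibition of growth. At the TGI there is no net growth.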

Tests used:
Test in all cases: DTP human tumour cell line panel, 48 h
ACHN renal = test system: ACHN renal
CCRF-CEM leukemia = test system: CCRF-CEM leukemia
HT29 colon = test system: HT29 colon
RXF 393 renal = test system: RXF 393 renal
SF-539 CNS = test system: SF-539 CNS
SK-MEL-2 melanoma = test system: SK-MEL-2 melanoma
SNB-75 CNS = test system: SNB-75 CNS
UACC-257 melanoma = test system: UACC-257 melanoma
MDA-MB-435 = test system: MDA-MB-435
PC-3 prostate = test system: PC-3 prostate

SMILES | TGI (ACHN renal) [µM] | TGI (CCRF-CEM leukemia) [µM] | TGI (HT29 colon) [µM] | TGI (RXF 393 renal) [µM] | TGI (SF-539 CNS) [µM] | TGI (SK-MEL-2 melanoma) [µM] | TGI (SNB-75 CNS) [µM] | TGI (UACC-257 melanoma) [µM] | TGI (MDA-MB-435) [µM] | TGI (PC-3 prostate) [µM] | GI50 (ACHN renal) [µM] | GI50 (CCRF-CEM leukemia) [µM] | GI50 (HT29 colon) [µM] | GI50 (SF-539 CNS) [µM] | GI50 (SK-MEL-2 melanoma) [µM] | GI50 (SNB-75 CNS) [µM] | GI50 (UACC-257 melanoma) [µM] | GI50 (MDA-MB-435) [µM] | GI50 (PC-3 prostate) [µM] | GI50 (RXF 393 renal) [µM]
COc1ccc(C2[C@@H](Cl)C(=O)N2c2ccc(OC)cc2)cc1 (stereo partly drawn) | > 100 | > 100 | > 100 | > 100 | 49.8 | > 100 | 64.1 | > 100 |  |  |  |  |  |  |  |  |  |  |  | 
O=c1[nH]c(C2CCCCC2)nc2ccc(Cl)cc12 | > 100 |  | > 100 | > 100 | > 100 | > 100 | > 100 | > 100 |  |  |  |  |  |  |  |  |  |  |  | 
OCC1OC(NO)C(O)C(O)C1O (stereo not drawn) | > 100 | > 100 | > 100 | > 100 | > 100 |  |  | > 100 |  |  |  |  |  |  |  |  |  |  |  | 
O=S(=O)(O)c1ccc([Se][Se]c2ccc(S(=O)(=O)O)cc2)cc1 | > 100 | > 100 | > 100 | > 100 | > 100 | > 100 | > 100 | > 100 |  |  |  |  |  |  |  |  |  |  |  | 
COc1ccc(NC(=O)CC2SC(=Nc3ccc(Cl)cc3C)NC2=O)c([N+](=O)[O-])c1 (stereo not drawn) | > 100 | > 100 | > 100 | > 100 | > 100 | > 100 | > 100 | > 100 |  |  |  |  |  |  |  |  |  |  |  | 
COc1cc(OC)c(OC)cc1/C=C/c1ccc2ccccc2n1 | > 10 | > 10 | > 10 |  | > 10 |  | > 10 | > 10 | > 10 | > 10 |  |  |  |  |  |  |  |  |  | 
CCn1c(C)nc([N+](=O)[O-])c1Sc1ncc[nH]1 | > 100 | 58.7 | > 100 |  | > 100 | > 100 | > 100 | > 100 |  |  |  |  |  |  |  |  |  |  |  | 
CCCCCCCC(=O)[O-].N.N.N.N.N.[Co+3].[O-][Cl+3]([O-])([O-])[O-] | > 100 | > 100 | > 100 |  | > 100 | > 100 | > 100 | > 100 |  |  | > 100 | > 100 | > 100 | > 100 | > 100 | > 100 | > 100 |  |  | 
O=S1c2ccccc2N=C(c2cccs2)CC1c1ccccc1O (stereo not drawn) | > 100 | > 100 | > 100 | > 100 | > 100 | > 100 | > 100 | > 100 |  |  |  |  |  |  |  |  |  |  |  | 
CS(=O)(=O)Nc1cc(-c2ccc3ncnc(Nc4ccc(OCc5ccccn5)c(Cl)c4)c3c2)cnc1Cl | > 100 | > 100 | 38.5 |  | 2.38 | 0.739 | 0.797 | 7.1 | 2.78 | > 100 | 1.02 | 0.217 | 0.456 | 0.31 | 0.184 | 0.0438 | 0.378 | 0.376 | 0.349 | 
c1ccc2cc(Cn3c(-c4cccc5ccccc45)[n+](Cc4ccc5ccccc5c4)c4c5ccccc5c5ccccc5c43)ccc2c1 |  | 2.31 |  |  |  |  | 1.19 |  | 1.38 | 1.53 |  | 0.362 |  |  |  | 0.261 |  | 0.359 | 0.158 | 
O=C(Nc1cccc(Cl)c1)Nc1cc(C(F)(F)F)ccc1Cl | 7.16 | > 100 | 11.3 | 3.95 | 11.4 | 5.4 | 6.48 | 5.84 |  | 32.8 | 2.54 | 3.24 | 3.03 | 3.18 | 2.24 | 2.29 | 2.66 |  | 3.86 | 1.12
COc1ccc2c(c1)C(=O)CC(C(N)=O)C2 (stereo not drawn) | > 100 | > 100 | > 100 | > 100 |  | > 100 | > 100 | > 100 | > 100 | > 100 |  |  |  |  |  |  |  |  |  | 
Oc1ccccc1-c1cnnc(-c2ccccc2O)c1 | 83.5 | 36.5 | 64.3 | 56.5 | 65.1 | 43.6 | 51.6 | 53.5 |  |  |  |  |  |  |  |  |  |  |  | 
C[C@H]1O[C@@H](O[C@H]2[C@@H](O)C[C@H](O[C@H]3[C@@H](O)C[C@H](O[C@H]4CC[C@]5(C)C6CC[C@]7(C)[C@@H](C8=CC(=O)OC8)CC[C@]7(O)C6CC[C@@H]5C4)O[C@@H]3C)O[C@@H]2C)C[C@H](O)[C@@H]1O (stereo partly drawn) | 0.0391 |  | 0.0653 | 0.0439 | 0.0373 | 0.0675 | 0.102 | 0.0734 | 0.0666 | 0.106 | 0.0126 |  | 0.0193 | 0.0141 | 0.0192 | 0.0182 | 0.0203 | 0.017 | 0.0194 | 0.0142
O=S1(=O)CC#CC[C@@H](CO)[C@@H](CO)CC#CC1 | > 100 | 98.1 | > 100 | > 100 | > 100 | > 100 | > 100 | > 100 |  |  |  |  |  |  |  |  |  |  |  | 
Nc1nc(N)c2c(n1)NC(c1ccc(Cl)cc1)C1CCc3ccccc3C1=N2 (stereo not drawn) | 18.3 |  | 18 | 19.1 | 19.6 | 24.6 | 26.8 | 19.6 | 19.6 | 14.5 | 4.72 |  | 4.31 | 6.17 | 10.6 | 13 | 7.07 | 4.72 | 2.86 | 4.68
CCCCCCCN(CCCCCCC)C(=N)c1ccc(OC)c2ccccc12 | 2.81 | 3.63 |  | 3.01 |  | 3.4 | 2.6 |  | 2.89 | 2.78 | 1.32 | 1.76 |  |  | 1.81 | 1.3 |  | 1.48 | 1.35 | 1.3
COC(=O)/C(=C1\OC(=O)C(c2ccc(Cl)cc2)=C1O)c1ccc(Cl)cc1 | 79.2 | > 100 | > 100 | 63 | 67.7 |  | 73 | 48.8 |  |  |  |  |  |  |  |  |  |  |  | 
O/N=C1/C(=C/c2ccc(Br)cc2)CCCC1C(NO)c1ccc(Br)cc1 (stereo not drawn) | 31.2 | 51.2 | 35.4 | 31.1 | 44.8 | 34 | 36.4 | 33.3 |  |  |  |  |  |  |  |  |  |  |  | 
